EC50, IC50 and outcome data for 75 molecules are collected here from PubChem BioAssay AID179 (DTP/NCI, 2004).

This test has as its system CEM cells HIV-1 protection, formazan growth assay. Description: NCI AIDS Antiviral Assay. Conditions: for IC50: measured here: growth of uninfected CEM cells. Summed up: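 Five concentrations of each compound were applied to infected and uninfected human CEM cells. Protection from HIV-1 was judged from growth measured with a soluble formazan assay.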

The structures appear in SMILES notation. Several values for one entry are separate records, joined by “and”; a condition that tells them apart may be missing. Equal values may be shown once. Activity calls are given as the source filed them.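 Rule for the calls: active = compounds giving half or more protection of infected cells from virus-caused growth loss, again on retest; inactive = the rest.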 *1 amine or outer side, *2 acyl side, *3 side chain or, on linkers, in order; H or OH if unused. Where a SMILES comes first, the peptide text is derived from it. Bridges are numbered along the chain shown (N, C = ends). [ ]: non-standard residue; d: D form. The star is where a group is joined. X22 = CC(C)C(C)C(C(=O)[*:2])N(C)[*:1]; Picolinoyl(3-OH) = O=C(c1ncccc1O)*; NMePhg = CN[CH](C(=O)O)c1ccccc1; Hyp = O=C(O)[CH]1C[CH](O)CN1; Sar = CNCC(=O)O

By EC50 is commonly meant the midpoint of the concentration-response curve. A word on the IC50: it is the midpoint of a concentration-inhibition curve. Read a high IC50 as weaker potency in that assay. With `CC(C)=CCC/C(C)=C/Cc1c(O)ccc2cc(-c3cc(O)cc(O)c3CC=C(C)C)oc12`, the EC50 was > 22.4 µM and the IC50 amounted to 18.2 µM.
For `O=C1OCC/C1=C\c1ccc2c(c1)OCO2`, the EC50 is > 45.7 µM and the IC50 was > 45.7 µM.
As to `CC1(C)OCC(C2OC3OC(C)(C)OC3C2c2ccccc2)O1` (stereo unspecified), the EC50 was > 200 µM and the IC50 is > 200 µM.
Regarding `COc1cc2c(c(OC)c1OC)C(=O)[C@@H](O)[C@H]2NC(=O)CCCCl`, the EC50 is > 200 µM and the IC50 was > 200 µM.
With `[Pt].c1ccc(P(CCP(CCP(c2ccccc2)c2ccccc2)CCP(c2ccccc2)c2ccccc2)c2ccccc2)cc1`, the EC50 is > 5.62 µM and the IC50 is 2.95 µM.
Turning to `O=C1C=CC=C/C1=C1\N=C(c2ccccc2OCC(=O)c2ccc(Br)cc2)SS1`, the EC50 is > 50.1 µM and the IC50 came out at 19.5 µM.
The matching figures for `COC(=O)c1ccccc1CC1Cc2ccc3c(c2C1=O)CCC3` (stereo unspecified): > 200 µM and > 200 µM.
The like results for `Cc1nc2ccc(N)cc2[nH]c1=O` were, in that order, > 741 µM and > 741 µM.
With `CSc1cc(Cl)c(C(=O)Nc2ccccc2)cc1S(=O)(=O)n1cc[nH]c1=O`, the EC50 was > 200 µM and the IC50 was > 200 µM.
Consider `C=CCCCC(C#N)(c1ccccc1)N(C)C` (stereo unspecified), for which the result was inactive.
Take `CCC(C)c1c(NC(=O)c2ccccc2)o[nH]c1=O` (stereo unspecified): the EC50 is > 200 µM and the 50% inhibitory concentration (IC50) was > 200 µM.
For `O=C1OC(OC/C(Br)=C(\Br)COC2OC(=O)C(Cl)=C2Cl)C(Cl)=C1Cl` (stereo unspecified), the EC50 was > 200 µM and the IC50 amounted to 3.09 µM.
In the case of `CC(C)CC1NC(=O)C(NC(=O)c2ncccc2O)C(C)OC(=O)C(c2ccccc2)N(C)C(=O)C(C)NC(=O)C(C(C)C(C)C)N(C)C(=O)CN(C)C(=O)C2CC(O)CN2C1=O` (stereo unspecified) ({Picolinoyl(3-OH)}-TL[Hyp][Sar][X22]A[NMePhg]; ester 1-C; configuration not given here), the outcome was inactive.
With `Cc1ccccc1NC(=O)C(=O)Cc1nc2ccccc2s1`, the EC50 is > 12 µM and the IC50 was > 12 µM.
Take `C=C=C(C)CN(CC)CC`: the EC50 is > 1580 µM and the IC50 was > 1580 µM.
Turning to `COc1ccc2c(c1)C1Oc3ccccc3CC1CO2` (stereo unspecified), the EC50 was > 200 µM and the IC50 turned out to be 52.5 µM.
Turning to `O=C1/C(=C/c2ccc(O)cc2)CCc2ccccc21`, the EC50 was > 200 µM and the IC50 was determined as 20.9 µM.
`Cc1nc2ccc(S(=O)(=O)Nc3nccs3)cc2c(=O)n1NS(=O)(=O)c1nccs1`: the EC50 was > 200 µM and the IC50 worked out at 49 µM.
For the molecule `Fc1ccccc1C=NC12CC3CC(CC(C3)C1)C2`, the EC50 was > 20.4 µM and the IC50 was > 20.4 µM.
For `COc1cc(OC)c(/C=C\c2nccc3ccccc23)c(OC)c1`, the EC50 was > 200 µM and the IC50 is 13.8 µM.
For the molecule `COc1ccc(C(O)c2nccn2C)c(OC)c1` (stereo unspecified), the EC50 was > 200 µM and the IC50 was > 200 µM.
For the molecule `CCCCCCCC(=O)NCC(O)CNC(=O)CCCCCCC`, the outcome was inactive.
For `COc1ccc(C2OC(c3ccncc3)=NN2C)cc1F` (stereo unspecified), the EC50 is > 200 µM and the IC50 was > 100 µM.
The matching figures for `CSc1nc(Cl)c2c(n1)Sc1nc3ccccc3n1C2O` (stereo unspecified): > 200 µM and 6.31 µM.
The matching figures for `N#C/C=C(/NC(=O)Nc1ccccc1)N1CCCC1`: > 200 µM and > 200 µM.
In the case of `Cc1ccc2nc3nc(C)c(C)nc3nc2c1`, the EC50 was 1.15 µM and the IC50 was found to be 14.5 µM.
In the case of `CC1(c2nc3ccccc3[nH]2)CCC(C(N)=O)C(C)(C)O1` (stereo unspecified), the EC50 was > 200 µM and the IC50 is > 200 µM.
For the molecule `O=[N+]([O-])c1ncn(C2OC(CO)C(O)C2O)c1S` (stereo unspecified), the EC50 is > 200 µM and the IC50 was > 200 µM.
Consider `COc1ccc2ccccc2c1-c1cccc2ccccc12`, for which the EC50 is > 200 µM and the IC50 is 32.4 µM.
`S=C1NC(c2ccccc2)=NC(Cc2ccccc2)(c2ccccc2)N1c1ccccc1` (stereo unspecified): the outcome was inactive.
Regarding `CCOC(=O)C1C(c2ccc3c(c2)OCO3)c2c([nH][nH]c2=O)CC1(C)O` (stereo unspecified), the EC50 is > 200 µM and the IC50 was > 200 µM.
For `O=S(=O)(C1CCCCC1)N1N=NC2CCCCC21` (stereo unspecified), the EC50 is > 200 µM and the IC50 is > 200 µM.
As for `NC(CSS(=O)(=O)O)=NCCCOCc1ccccc1`, the EC50 is > 200 µM and the IC50 was found to be 112 µM.
For `CC(=S)N=Cc1c(O)[nH]c(=O)[nH]c1=O`, the EC50 is > 200 µM and the IC50 is > 200 µM.
Take `Cc1nc2c(sc3nc4ccccc4n32)c(=O)[nH]1`: the EC50 was > 100 µM and the IC50 was > 100 µM.
Take `CC(C)(C)OC(=O)NC(Cc1ccccc1)/C(O)=C(\C#N)c1ccc([N+](=O)[O-])cc1` (stereo unspecified): the EC50 was > 200 µM and the IC50 stood at 83.2 µM.
For the molecule `COC(=O)/C(=N\O)C(C(=O)C=C(C)C)C(=O)C(=O)Nc1ccccc1C` (stereo unspecified), the EC50 is > 692 µM and the IC50 is > 692 µM.
In the case of `c1ccc2c(c1)nnn2CNc1ccc(N2CCOCC2)cc1`, the EC50 is > 200 µM and the IC50 worked out at 51.3 µM.
The matching figures for `O=C1CCCCCCCCCCC1CCCCCBr` (stereo unspecified): > 200 µM and 57.5 µM.
The matching figures for `NC1=NC2(O)c3ccccc3C(=O)C2(O)N1` (stereo unspecified): > 45.7 µM and 28.8 µM.
Take `c1ccc(CNc2nncc3[nH]cnc23)cc1`: the EC50 is > 200 µM and the IC50 was > 200 µM.
As to `O=C1CN(c2ccccc2)C(=O)C1C(=O)Nc1ccc(Cl)c(Cl)c1` (stereo unspecified), the EC50 is > 3.98 µM and the IC50 stood at 3.89 µM.
The like results for `CN1c2ccccc2N(C)C23N(C)c4ccccc4N(C)C12N(C)c1ccccc1N3C` (stereo unspecified) were, in that order, > 43.7 µM and > 43.7 µM.
With `O=C(O)[C@@H]1CSC(C(O)C(O)C(O)CO)N1` (stereo partly specified), the EC50 was > 355 µM and the IC50 was > 355 µM.
Turning to `CSc1c(C(C)=O)c(O)n(-c2ccc(Cl)cc2)c(=O)c1C#N`, the EC50 was 35.5 µM and the IC50 is 36.3 µM.
Take `C[C@@H]1C(=O)O[C@H]1[C@H](O)CO`: the EC50 is > 200 µM and the IC50 was > 200 µM.
On to `CC(NC(=O)C(NC(=O)CNC(=O)OC(C)(C)C)C(C)C)C(=O)Oc1c(Cl)c(Cl)c(Cl)c(Cl)c1Cl` (stereo unspecified), for which the EC50 was > 200 µM and the IC50 is 29.5 µM.
For the molecule `CC(=O)OC1SCC2OC(=O)OC21` (stereo unspecified), the EC50 was > 1230 µM and the IC50 is > 1230 µM.
For `COc1ccc2cc(C(=O)O)ccc2c1OC`, the EC50 is > 200 µM and the IC50 was > 200 µM.
For the molecule `Clc1ccc(SCCSCCCCCCCCCCSCCSc2ccc(Cl)cc2)cc1`, the EC50 was > 9.55 µM and the IC50 is > 9.55 µM.
`Cc1ccc(-n2nc3c(c(C#N)c2=O)-c2ccccc2C3=O)cc1`: the outcome was inactive.
For the molecule `COc1ccc(CC#C/C=C/C(=O)NCC(C)C)cc1`, the EC50 is > 95.5 µM and the IC50 came out at 14.1 µM.
The like results for `C=C1C(=O)[C@@]23CC1C(O)[C@@H](OC(C)=O)[C@@H]2C1(C)C(OC(C)=O)C[C@@H](OC(C)=O)C(C)(C)[C@@H]1C[C@H]3OC(C)=O` (stereo partly specified) were, in that order, > 200 µM and 0.851 µM.
As to `O=C1NC(CSSCC2NC(=O)N(c3ccccc3)C2=O)C(=O)N1c1ccccc1` (stereo unspecified), the EC50 was > 200 µM and the IC50 came to 1.12 µM.
On to `c1ccc2c3nnc(c2c1)SCCSCCSc1nnc(c2ccccc12)SCCSCCS3`, for which the EC50 is > 200 µM and the IC50 was > 200 µM.
Consider `CCc1cccc(C)c1NC(=O)CC1C(=O)Nc2ccccc2S1=O` (stereo unspecified), for which the result was inactive.
For the molecule `Cc1cc(N(C)C)ccc1N=Nc1ccc2ncccc2c1`, the result was inactive.
In the case of `Cc1nc(N2N=C(c3ccc(Cl)cc3)CCC2=O)sc1[N+](=O)[O-]`, the EC50 was > 74.1 µM and the IC50 stood at 32.4 µM.
The like results for `COc1ccc(N=NN2CCCC2)cc1` were, in that order, > 200 µM and 15.5 µM.
The like results for `O=c1nc2n(cc1F)C1OC(CCl)C(O)C1O2` (stereo unspecified) were, in that order, > 200 µM and > 200 µM.
Consider `CCCCCCCCCC(=O)NC(Cc1ccc(O)cc1)C(=O)NCCCNCCCCNCCCNC(=O)[C@@H](N)CCCN=C(N)N` (stereo partly specified), for which the EC50 was > 69.2 µM and the IC50 was 58.9 µM.
Take `CCCC(C(=O)OCCN(CC)CC)(c1ccccc1)c1ccccc1`: the EC50 is > 200 µM; the concentration for half-maximal inhibition (IC50) was 102 µM and 37.2 µM.
Turning to `CN(C)C(=O)c1nnsc1NN=O`, the EC50 was > 200 µM and the IC50 was > 200 µM.
With `Cc1ccccc1Nc1nc(NNC(=O)Cc2ccccc2)nc(NNC(=O)c2ccncc2)n1`, the EC50 was 155 µM and the IC50 came out at 407 µM.
Consider `CC(=O)OC[C@]1(C)CCCC2(C)C1CCC1C=C(C)[C@H]3CCC12C3` (stereo partly specified), for which the EC50 was > 107 µM and the IC50 is > 107 µM.
Take `Cc1ccc(NC(=S)SCCC(=O)O)cc1`: the result was inactive.
Regarding `COC(=O)N1[C@@H]2C=CC=CC=C2[C@@H](OC)N1C(=O)OC`, the EC50 was > 158 µM and the IC50 was 89.1 µM.
Consider `O=C1C(Cl)C(c2ccccc2Cl)N1n1cnc2ccccc2c1=O` (stereo unspecified), for which the EC50 was > 14.5 µM and the IC50 was > 14.5 µM.
With `Cc1cc(C)n(CCNCCn2nc(C)cc2C)n1`, the outcome was inactive.
`O=C1CCC2(O)c3ccccc3C2Cc2ccccc21` (stereo unspecified): the EC50 was > 200 µM and the IC50 was > 200 µM.
Take `Nc1ncnc2c1ncn2CC1OC(CO)C(CO)O1` (stereo unspecified): the EC50 is > 891 µM and the IC50 was > 891 µM.
`COc1ccc(/C=C2\CCC(C)/C(=C\c3ccc(OC)c(OC)c3)C2=O)cc1OC` (stereo unspecified): the EC50 was > 151 µM and the IC50 was 7.94 µM.
With `OC(Nc1ccccn1)(C(F)(F)F)C(F)(F)F`, the EC50 is > 200 µM and the IC50 is > 200 µM.
As to `COc1ccc(-c2cc(=O)c3c(C)cc(O)cc3o2)cc1`, the EC50 is 81.3 µM and the IC50 worked out at 115 µM.
As to `CC(C)(C)c1cc(C2COC(c3cc(C(C)(C)C)c(O)c(C(C)(C)C)c3)CO2)cc(C(C)(C)C)c1O` (stereo unspecified), the EC50 was > 50.1 µM and the IC50 is > 50.1 µM.
